{"source": "patent US11325937B2", "about": "“Glycoside compound and preparation method therefor, composition, application, and intermediate” (SHANGHAI HUTCHISON PHARMACEUTICALS LIMITED, priority 2018, dated 2022)", "key": {"[1]": {"system": "rats with middle cerebral artery occlusion (MCAO)", "test": "Acute cerebral infarction model in rats with middle cerebral artery occlusion (MCAO)", "type": "in vivo, male SD rats", "conditions": "MCAO", "source_text": "After obtaining the active molecules that can promote the expression of VEGF-A mRNA in the animal model of inflammatory angiogenesis, a rat model of cerebral infarction was used for further verification. Following the method as described in Longa, E. Z., Longa, E. Z., Weinstein, P. R., Carlson, S. & Commin, R. Reversible middle cerebral artery occlusion without craniectomy in rats. [J]. Stroke, 1989. 1: 84-91, an acute cerebral infarction model was established in rats with middle cerebral artery occlusion (MCAO); and following the method as described in C. dela Torre, T. Fortin, G. A. S. Park, K. S. Butler, P. Kozlowski, B. A. Pappas, H. de Socarraz, J. K. Saunders and M. T. Richard. [J]. Brain Research, 1992. 582:186-195, a chronic cerebral ischemia model was established in rats with permanent ligation of bilateral common carotid arteries (2VO). The inhibition on cerebral infarction and neuroprotection for brain injury of the active molecules screened in Effect Example 2 were verified.\nThe control drugs were: Edaravone (purchased from Zhejiang Shengtong Biotechnology Co., Ltd.), Clopidogrel bisulfate (purchased from Wuhan Yuancheng Gongchuang Technology Co., Ltd.), and Salvianolate (purchased from Henan Provincial People's Hospital). Clopidogrel bisulfate is a platelet aggregation inhibitor, and Edaravone is a brain protectant (free radical scavenger). The MCAO model of rats was made by the thread occlusion method. The rats used in this effect example were male SD rats weighing 280-320 grams, purchased from Shanghai SLAC Laboratory Animal Co., Ltd. Five SD (Sprague Dawley) rats in each group were administered by intraperitoneal injection, 2 h before surgery, and every 24 h after modeling.\nThree days later, the brain was taken, and the rat brain was stained with TTC (2,3,5-triphenyltetrazolium chloride, to detect the cell viability) and then photographed. Infarction rate (%)=(Non-infarction area of right brain section−non-infarction area of left brain section)/total area of brain section*100%. According to t tests, *P<0.05, **P<0.01, ***P<0.001 compared with the model group (MCAO). Infarction inhibition rate (%) at different doses=(infarction rate of model group-infarction rate of treatment group)/infarction rate of model group*100%. The infarction inhibition rate at different doses was plotted, and the ED50 of the drug was calculated.\nMoreover, the body weight of the rats was recorded. The rate of body weight change was calculated according to a formula: Rate of body weight change (%)=(final weight-initial weight)/[…].\nThree days after the acute cerebral infarction model was established in rats with MCAO, the test rats were scored for neurological function according to the Longa nerve scoring standard.\nThree days after the acute cerebral infarction model of MCAO was established in rats, the intact brain tissue was taken out, olfactory bulb and the brain tissue that is 4 mm in front of the frontal pole was removed, and the immediately adjacent brain tissue of 2 mm thick was taken for water content measurement in the brain. The water content in brain tissue is calculated by the formula: (WW−DW)/WW×100%, where WW is the wet weight and DW is the dry weight. Three days after the acute cerebral infarction model of MCAO was established in rats, the brain tissue was stained with Evans Blue (EB, a commonly used azo dye preparation) to evaluate the permeability across the blood-brain barrier (BBB), so as to evaluate the integrity of blood-brain barrier. Both experiments were tested with the optimal dose of each drug previously determined: TG-028 (5 mg/Kg), Salvianolate (20 mg/Kg), Clopidogrel bisulfate (40 mg/Kg), Edaravone (40 mg/Kg)."}, "[2]": {"system": "VEGF-A mRNA expression in macrophages (RAW264.7)", "test": "In vitro macrophage experiment: activity of compounds to promote VEGF-A mRNA expression (RT-qPCR)", "type": "cell-based", "set-up": "Expression level of VEGF-A mRNA: unit of the concentration uncertain", "conditions": "RAW264.7 macrophages, 3 h, no drug = 1; for fold induction at 500 µM: 0.5 mM; for fold induction at 1000 µM: 1 mM; for fold induction at 2000 µM: 2 mM; for fold induction at 3000 µM: 3 mM", "source_text": "1.1. Specific steps for activity screening: 1-10×10^6 macrophages (RAW264.7) in logarithmic growth phase were transferred to a cell culture plate. The test compounds (Compounds TG-001, TG-002, TG-003, TG-004, TG-005, TG-006, TG-007, TG-008, TG-009, TG-010, TG-011, TG-012, TG-013, TG-014, TG-015, TG-016, TG-017, TG-018, TG-019, TG-020, TG-021, TG-022, TG-023, TG-024, TG-025, TG-026, TG-027, TG-028, TG-029, TG-030, TG-031, TG-032, TG-033, TG-034, TG-035, TG-036, TG-037, TG-045, TG-039, TG-040 TG-041, TG-042, TG-043, TG-044, TG-045, TG-052, TG-053, TG-054, TG-047, TG-048, TG-046, TG-049, TG-050, TG-051, TG-055 and TG-056) were respectively diluted into various concentrations, and separately added to the cell culture plate containing macrophage. The cells were cultured for 3 h in a complete medium (RPMI 1640 medium:fetal bovine serum:tri-resistance screening agent (i.e. penicillin-streptomycin-gentamicin, Beijing Leagene Biotechnology Co., Ltd.)=89:10:1 based on volume) in a cell incubator at 37° C. and 5% CO2. The cells were lyzed by Trizol (Beijing ComWin Biotech Co., Ltd) to extract RNA, and the RNA concentration was measured using a microvolume nucleic acid and protein analyzer (Nanodrop2000c). The required volume V of RNA was calculated according to the RNA concentration, and the RNA reverse transcription reaction system was prepared according to Table 1. Then RNA reverse transcription (cDNA synthesis) (RT Easy™ I (For first-strand cDNA synthesis) Reverse Transcription Kit, Chengdu ForeGene Biotechnology Co., Ltd.) was carried out according to the conditions described in Table 2. The resulting cDNA was used to prepare a fluorescence quantitative PCR reaction solution according to Table 3. The fluorescence quantitative PCR reaction conditions were set according to Table 4, and the fluorescence quantitative PCR reaction (Real time PCR Easy™-SYBR Green Fluorescence Quantification Kit, Chengdu ForeGene Biotechnology Co., Ltd.) was performed using cDNA from the reverse transcription reaction as a template. The relative expression level 2^−ΔΔCt of the target gene was calculated from the Ct value of each sample with the blank control group as a control and β-Actin as an internal reference.\nBased on the maximum level of VEGF-A mRNA expression promoted by a drug at a certain concentration, the activity of the drug was determined. The expression level of VEGF-A mRNA in macrophages was defined as 1 when no drug was added. Using a traditional Chinese medicine injection Salvianolate that is used in the treatment of Cardio-cerebrovascular disease and promotes a maximum level of VEGF-A mRNA expression of 6 in macrophages (the results are shown in Table 5) as a judgment standard, the compound promoting a maximum level of VEGF-A mRNA expression of 4 or more in macrophage was a target compound. That is, when the maximum level of VEGF-A mRNA expression in macrophages promoted by the test compound is over 4-fold higher than the expression level of VEGF-A mRNA in macrophages without the addition of the test compound, the test compound was a preliminary target compound promoting angiogenesis."}, "VEGF-A mRNA": {"system": "VEGF-A mRNA", "test": "Sponge implanted animal model of inflammatory angiogenesis: VEGF-A mRNA expression", "type": "in vivo, male C57/BL6 mice", "conditions": "2 weeks", "source_text": "The target pro-angiogenic compounds TG-052, TG-053, TG-054, TG-028, and TG-055 obtained in Effect Example 1 that perform well at the cellular level were further screened for the active molecules that promote VEGF-A mRNA expression in the “sponge implanted animal model” of inflammatory angiogenesis. […] This model can well reflect the expression of VEGF-A mRNA in macrophages recruited around inflammation.\nA sponge implanted mouse model was established following the method as described in Zhang J, Modi Y, and Yarovinsky T, et al. Macrophage β2 integrin-mediated, HuR-dependent stabilization of angiogenic factor-encoding mRNAs in inflammatory angiogenesis. [J]. American Journal of Pathology, 2012. 180(4): 1751-1760. The mice used in the present invention was male C57/BL6 mice aged 6-8 weeks and weighing 20-25 g, purchased from Shanghai SLAC Laboratory Animal Co., Ltd, Production License No: SCXK (Shanghai) 2013-0016. The compound screened in Effect Example 1 was weighed according to the amount intended to be used in two weeks, and then mixed with a gel matrix and a solvent to prepare a sustained-release gel of the compound (see Patent Application No.: CN201610168493.9 for the details of the preparation method of the sustained-release gel and the model establishment and detection methods). The specific steps were as follows. A certain amount of the compound obtained in Effect Example 1 was weighed into a 1.5 mL EP tube, and then a certain amount of poly-L-lactic acid (PLLA) with a weight average molecular weight of less than 10,000 was weighed and mixed with the compound (at a weight ratio of the compound to PLLA of 0.5:1 to 2:1). Finally a certain amount of DMSO (less than 100 microliters) was added, spun, mixed well, and then sealed with a sealing film. After continuous ultrasonication at 200 W and 25° C. for 5 h, a sustained-release gel of the compound was obtained, which was stored at 4° C. for later use.\nThe prepared sustained-release gel can release the drug completely within 2 weeks. The sustained-release gel and sponge were both subcutaneously implanted in the mice at the back. After 2 weeks, the sponge was taken out, and the residual tissue and fur were removed. The sponge was transferred to a cell culture plate containing 10 mL of DMEM medium containing collagenase (Collagenase:DMEM=10 mg/10 mL), cut, and incubated for 1 h in a cell incubator. Then the culture medium containing sponge debris was filtered, and the resulting filtrate was centrifuged. The supernatant was discarded, and 500 μL of Trizol reagent was added to the pellet, and mixed uniformly by blowing. Then the liquid was transferred to a 1.5 mL EP tube, and stored at −80° C. RNA was extracted according to a conventional method, and the RNA concentration was determined using a microvolume nucleic acid and protein analyzer (Nanodrop2000c). The required volume V of RNA was calculated according to the RNA concentration, and the RNA reverse transcription reaction system was prepared according to Table 1. Then RNA reverse transcription (cDNA synthesis) was carried out according to the conditions described in Table 2. The resulting cDNA was used to prepare a fluorescence quantitative qPCR reaction solution according to Table 3. The fluorescence quantitative qPCR reaction conditions were set according to Table 4, and the fluorescence quantitative PCR reaction was performed using cDNA from the reverse transcription reaction as a template. The relative expression level 2^−ΔΔCt of the target gene was calculated from the Ct value of each sample with the blank group as a control and β-Actin as an internal reference. The expression level of VEGF-A mRNA in the cells extracted from the sponge was observed after 2 weeks. […]"}, "[3]": {"conditions": "Mus musculus, relative expression, read-out: Expression level of VEGF-A mRNA"}}, "data": [{"compound": "COC(=O)[C@H](c1ccccc1Cl)N1CCc2sccc2C1", "note": "[Clopidogrel bisulfate, reference compound]", "values": [{"measurement": "ED50", "setting": "[1]; Rattus norvegicus, ip, 72 h, intraperitoneal injection, TTC staining after 3 days, read-out: ED50 for infarction inhibition rate (%)", "result": 28.1, "unit": "mg/kg"}]}, {"compound": "OC[C@H]1O[C@@H](OCCCCc2ccc(OCc3ccc(F)cc3)cc2)[C@H](O)[C@@H](O)[C@@H]1O", "note": "[TG-051]", "values": [{"measurement": "fold induction at 1 µM", "setting": "[2]; Mus musculus, 1 μM, relative expression 2^-ΔΔCt, read-out: Expression level of VEGF-A mRNA", "result": 1.1}, {"measurement": "fold induction at 100 µM", "setting": "[2]; Mus musculus, 0.1 mM, relative expression, read-out: Expression level of VEGF-A mRNA", "result": 4.49}, {"measurement": "fold induction at 500 µM", "setting": "[2]; [3]", "result": 6.76}, {"measurement": "fold induction at 1000 µM", "setting": "[2]; [3]", "result": 7.89}, {"measurement": "fold induction at 2000 µM", "setting": "[2]; [3]", "result": 11.2}, {"measurement": "fold induction at 3000 µM", "setting": "[2]; [3]", "result": 8.18}]}, {"compound": "COc1ccc(CO[C@@H]2O[C@H](CO)[C@@H](O)[C@H](O)[C@H]2O)cc1", "note": "[TG-052]", "values": [{"measurement": "increase of expression level of VEGF-A mRNA compared with blank control without drugs", "setting": "VEGF-A mRNA; 41.37 mg/kg/d, sustained-release gel, mice", "result": "about 3 times"}, {"measurement": "activity in promoting VEGF-A mRNA expression compared with Salvianolate (in words)", "setting": "VEGF-A mRNA; positive control Salvianolate 60 mg/kg/d, sponge implanted mice", "result": "comparable to that of Salvianolate"}, {"measurement": "fold induction at 500 µM", "setting": "[2]; [3]", "result": 19.7}, {"measurement": "fold induction at 1000 µM", "setting": "[2]; [3]", "result": 0.93}, {"measurement": "fold induction at 2000 µM", "setting": "[2]; [3]", "result": 2.64}, {"measurement": "fold induction at 3000 µM", "setting": "[2]; [3]", "result": 2.69}, {"measurement": "fold induction at 4000 µM", "setting": "[2]; Mus musculus, 4 mM, relative expression, read-out: Expression level of VEGF-A mRNA", "result": 3.51}]}, {"compound": "COc1cc(CCCCO[C@@H]2O[C@H](CO)[C@@H](O)[C@H](O)[C@H]2O)ccc1O", "note": "[TG-057]", "values": [{"measurement": "Longa nerve scoring, protective effect on nerves (in words)", "setting": "[1]; 5 mg/kg, FIG. 20", "result": "has a protective effect on nerves in rats after brain injury, but the effect is not as strong as that of TG-028"}, {"measurement": "effect of inhibiting cerebral infarction (in words)", "setting": "[1]; 5 mg/kg, FIG. 20", "result": "has the effect of inhibiting cerebral infarction in the rats"}]}, {"compound": "TG-003", "values": [{"measurement": "Expression level of VEGF-A mRNA", "setting": "[2]; 1 μM, relative expression 2^-ΔΔCt", "result": 0.96}, {"measurement": "Expression level of VEGF-A mRNA", "setting": "[2]; 0.1 (unit uncertain), relative expression", "result": 3.56}, {"measurement": "Expression level of VEGF-A mRNA", "setting": "[2]; 0.5 (unit uncertain), relative expression", "result": 4.69}, {"measurement": "Expression level of VEGF-A mRNA", "setting": "[2]; 1 (unit uncertain), relative expression", "result": 3.12}, {"measurement": "Expression level of VEGF-A mRNA", "setting": "[2]; 2 (unit uncertain), relative expression", "result": 1.39}, {"measurement": "Expression level of VEGF-A mRNA", "setting": "[2]; 3 (unit uncertain), relative expression", "result": 0.56}]}]}
